pIC50: −log10 of the molar value. Where two headings read alike, the source gives them in different places.
Tests used:
[1] = when used as injections; cited from earlier work
Sarcoma 180 tumor = assay: Therapeutic Effect Against Sarcoma 180 Tumor; assay type: in vivo, male ddY-strain mice; settings: Mus musculus, Sarcoma-180, iv, 168 h, read-out: T/C
Experimental: Five male ddY-strain mice each weighing 18-20 g were used for each group as test animals, and 5×10^5 Sarcoma 180 tumor cells were implanted at the axilla subcutaneously. One day after the implantation, 0.2 ml of a physiological saline containing Compound (I) at the concentration shown in Table 2 was intravenously administered to each mouse. T/C [T: average tumor volume (mm^3) of the group treated with the test compound, C: average tumor volume (mm^3) of the control group (to which […] of a physiological saline was intravenously administered)] was determined seven days after the implantation.

ddY-strain male mice = assay: Acute Toxicity; assay type: in vivo; settings: i.v., mortality at 14 days after administration
Experimental: Compound (I) was intravenously administered to ddY-strain male mice each weighing 20±1 g. MLD (minimum lethal dose) was determined by observing the mortality at 14 days after administration.

[2] = Test for Solubility in Water; assay type: physicochemical; settings: room temperature
Experimental: A sample tube was charged with 0.7 mg of Compound (I), and 30 μl of water were added thereto at room temperature. The mixture was stirred, and the solubility in water was measured. When the compound was not dissolved, 30 μl of water was added thereto successively, and the mixture was stirred. The solubility in water was measured when the compound was dissolved.

HeLaS3 cells = assay: Growth Inhibitory Effect Against HeLaS3 cells; assay type: cell-based
Experimental: HeLaS3 cells were suspended in MEM medium containing 10% calf serum and 2 mM glutamine to a concentration of 2.67×10^4 cells/mi. The cell suspension thus prepared was put into wells of a 24-well culture plate in an amount of 0.75 ml per well. After the cells were incubated in a CO2 incubator overnight at 37° C., Compound (I) which had been appropriately diluted with a culture medium was added to each well in an amount of 0.25 ml.
The cells were further incubated in the CO2 incubator for 72 hours, and the culture supernatant was removed. Then, the cells were dispersed in a solution of trypsin and EDTA and recovered. The number of cells was counted using a cell counter. The concentration (IC50) of Compound (I) at which the growth of the cells is inhibited by 50% was calculated by comparing the number of untreated cells with the number of the cells treated with Compound (I) at known concentrations.

various bacteria = settings: cited from earlier work
melanoma B-16 = settings: cited from earlier work

SMILES | MLD (minimum lethal dose) (ddY-strain male mice) | solubility [2] | pIC50 (HeLaS3 cells; Homo sapiens, HeLa S3, 72 h) | antibacterial activity (various bacteria) | antitumor activity (melanoma B-16) | other results
COC(=O)c1c(C)[nH]c2c1C13CC1CN(C(=O)/C=C/c1ccc(OC)cc1)C3=CC2=O (centres unmarked) [(B)] | – | – | – | – | – | water-solubility [1]: lack satisfactory water-solubility
COC(=O)c1c(C)[nH]c2c(OC(=O)c3cccnc3)cc3c(c12)C(CBr)CN3C(=O)/C=C/c1ccc(OC)c(N(C)C)c1 (centres unmarked) [Compound 55] | 1.0 mg/kg | > 18 mg/mL | 9.37 | – | – | response vs control in vivo at 1 mg/kg (Sarcoma 180 tumor): 28%
COC(=O)c1c(C)[nH]c2c(OC(=O)NN3CCN(C)CC3)cc3c(c12)C(CBr)CN3C(=O)/C=C/c1ccc(OC)c(N(C)C)c1 (centres unmarked) [Compound 60] | > 8.0 mg/kg | > 20 mg/mL | 9.03 | – | – | response vs control in vivo at 4 mg/kg (Sarcoma 180 tumor): 15%
COC(=O)c1c(C)[nH]c2c(OC(=O)NN(C)C)cc3c(c12)C(CBr)CN3C(=O)/C=C/c1ccc(OC)c(N(C)C)c1 (centres unmarked) [Compound 62] | 2.0 mg/kg | > 20 mg/mL | – | – | – | response vs control in vivo at 2 mg/kg (Sarcoma 180 tumor; 2.0 mg/kg, single i.v. one day after s.c. implantation, tumor volume ratio seven days after implantation): 19%; pIC50 (HeLaS3 cells; Homo sapiens, HeLa S3, 72 hours, read-out: IC50): 9.21
CNN(C)C(=O)Oc1cc2c(c3c(C(=O)OC)c(C)[nH]c13)C(CBr)CN2C(=O)/C=C/c1ccc(OC)c(N(C)C)c1 (centres unmarked) [Compound 64] | 2.0 mg/kg | > 15 mg/mL | 8.96 | – | – | response vs control in vivo at 1.3 mg/kg (Sarcoma 180 tumor): 26%
COC(=O)c1c(C)[nH]c2c(OC(=O)c3ccc(CN4CCN(C)CC4)cc3)cc3c(c12)C(CBr)CN3C(=O)/C=C/c1ccc(OC)c(N(C)C)c1 (centres unmarked) [Compound 66] | 2.0 mg/kg | > 20 mg/mL | 8.96 | – | – | response vs control in vivo at 2 mg/kg (Sarcoma 180 tumor): 21%
COC(=O)c1c(C)[nH]c2c(OC(=O)NN3CCN(C)CC3)cc3c(c12)C(CCl)CN3C(=O)/C=C/c1cnc(OC)nc1 (centres unmarked) [Compound 69] | 4.0 mg/kg | > 10 mg/mL | 8.85 | – | – | response vs control in vivo at 4 mg/kg (Sarcoma 180 tumor): 40%
COC(=O)c1c(C)[nH]c2c(OC(=O)NN3CCN(C)CC3)cc3c(c12)C(CBr)CN3C(=O)/C=C/c1cnc(OC)nc1 (centres unmarked) [Compound 72] | 4.0 mg/kg | – | – | – | – | response vs control in vivo at 4 mg/kg (Sarcoma 180 tumor): 15%; Solubility in water [2]: > 10 mg/mL; pIC50 (HeLaS3 cells; 72 hours): 8.80
COC(=O)c1cc2c([nH]1)C(=O)C=C1N(C(=O)c3cc4cc(OC)c(OC)c(OC)c4[nH]3)CC3CC123 (centres unmarked) [DC113] | – | – | – | antibacterial activity against various bacteria | anti-tumor activity against melanoma B-16 | –
COC(=O)C1(C)NC2=C(C1=O)C13CC1CN(C(=O)c1cc4cc(OC)c(OC)c(OC)c4[nH]1)C3=CC2=O (centres unmarked) [DC-88A] | – | – | – | antibacterial activity against various bacteria | anti-tumor activity against melanoma B-16 | –
COC(=O)C1(C)Nc2c(O)cc3c(c2C1=O)CC(Cl)CN3C(=O)c1cc2cc(OC)c(OC)c(OC)c2[nH]1 (centres unmarked) [DC-89A1] | – | – | – | antibacterial activity against various bacteria | antitumor activity against melanoma B-16 | –
COC(=O)C1(C)Nc2c(O)cc3c(c2C1=O)C(CCl)CN3C(=O)c1cc2cc(OC)c(OC)c(OC)c2[nH]1 (centres unmarked) [DC-89A2] | – | – | – | antibacterial activity against various bacteria | antitumor activity against melanoma B-16 | –
COC(=O)C1(C)Nc2c(O)cc3c(c2C1=O)CC(Br)CN3C(=O)c1cc2cc(OC)c(OC)c(OC)c2[nH]1 (centres unmarked) [DC-89B1] | – | – | – | antibacterial activity against various bacteria | antitumor activity against melanoma B-16 | –
COC(=O)C1(C)Nc2c(O)cc3c(c2C1=O)C(CBr)CN3C(=O)c1cc2cc(OC)c(OC)c(OC)c2[nH]1 (centres unmarked) [DC-89B2] | – | – | – | antibacterial activity against various bacteria | antitumor activity against melanoma B-16 | –

Source: patent US5670492A, “DC-89 derivatives” (priority 1994, dated 1997)
